# Source: patent publication US5510345A, “Biologically active eburnamenine derivatives, pharmaceutical compositions containing them and process for preparing same” (Richter Gedeon Vegyeszeti Gyar Rt., priority 1992, dated 1996)
# Counter-ions that a name gives are not always drawn.
# How the values were obtained:
# [1] = test system: NADPH-induced lipid peroxidation in rat brain microsomes; assay: Inhibition of the NADPH-induced (enzymatically induced) lipid peroxidation in brain microsomes; type: biochemical, rat (male Hannover-Wistar); conditions: 20 min, 37° C., pH 6.8, 0.4 mM NADPH, malondialdehyde at 535 nm, N.I.: no inhibition
# From the text: The pharmacological effect of the eburnamenine derivatives of the formula (I) was studied as described hereinafter. […] The antioxidative effect was investigated on microsomes prepared from rat brain J. Neurochem. 37, pages 422-426 (1981)! and on rat brain homogenate J. Biol Chem. 262, pages 10438-10440 (1987)!. Inhibition of the NADPH-induced lipid peroxidation in brain microsomes Male Hannover-Wistar rats with a body weight of 150-250 g were used for the preparation of microsomes. After decapitation, the whole brain of the rat was removed and homogenized in a 10-fold volume of ice-cold 0.25M saccharose solution. The homogenate was centrifuged in a Hitachi CR 26H equipment at 15000×g at 4° C. for 10 minutes, then the supernatant was collected and centrifuged in a Hitachi SC[…] equipment at 78000×g at 4° C. for 60 minutes. After suspending the precipitate in 0.15M potassium chloride solution, the protein content of the obtained solution was determined and then adjusted to 10 mg/ml concentration. The microsome thus obtained was frozen in a dry ice-acetone mixture and stored at -70° C. until use. The components of the incubation mixtures were: 50 mM tris(hydroxymethyl)aminomethane hydrochloride (pH 6.8), 0.2 mM ferric chloride, 1 mM potassium dihydrogen phosphate, 0.5 mM adenosine-5'-diphosphate, 0.2 mg of microsomes as well as the compound to be tested. The incubation was carried out with a final volume of 1 ml and an incubation time of 20 minutes at a temperature of 37° C. The lipid peroxidation was induced by adding 0.4 mM NADPH ([…], reduced form). […] The formation of malondialdehyde was determined by using thiobarbituric acid. After stopping the reaction, 1 ml of 1% thiobarbituric acid solution each was added to the samples, which were then 10 placed in a water bath of about 100° C. for 10 minutes. Subsequently, the samples were centrifuged at 2000×g in a Janetzki K70 apparatus at 4° C. for 10 minutes. The absorbance value of the colored supernatant was measured at 535 nm in a Hitachi 150-20 spectrophotometer. Malondialdehyde bis(diethylacetal) was used as reference compound. The IC50 values of the compounds were determined on the basis of the concentration/effect correlations thereof and are indicated in Table I.
# [2] = test system: Fe^2+-induced lipid peroxidation in rat brain homogenate; assay: Effect on the Fe^2+-induced (non-enzymatically induced) lipid peroxidation in brain homogenate; type: biochemical, rat (Hannover-Wistar); conditions: for IC50: rat brain homogenate, 20 min, 37° C., pH 7.4, 8 mM ferrous diammonium disulfate solution (5 μl), malondialdehyde at 535 nm, read-out: Inhibition of the Fe^2+-induced lipid peroxidation IC50; for antioxidant activity compared with tirilazad mesylate / inhibition of the Fe^2+-induced lipid peroxidation compared with silymarin or ellagic acid / inhibitory effect on the Fe^2+-induced lipid peroxidation compared with DL-α-tocopherol: in words, from Table I
# Description: Effect on the Fe^2 +-induced lipid peroxidation in brain homogenate
# After decapitating Hannover-Wistar rats weighing 150-220 g each, the whole brain was homogenized in 9 volumes of icecold Krebs-Ringer's buffer containing 15 mM 4-(2-hydroxyethyl)-1-(piperazinylethanesulfonic acid (abbreviated: HEPES, pH 7.4), 140 mM sodium chloride, 3.6 mM potassium chloride, 1.5 mM calcium chloride, 0.7 mM magnesium chloride, 1.4 mM potassium dihydrogen phosphate and 10 mM glucose!. Then, the protein content of the solution was determined and adjusted to 10 mg/ml concentration.
# After adding the inhibitory agent to be tested in a volume of 5 ml to 200 μl of the homogenate, the incubation mixture was incubated at 37° C. for 20 minutes. The Fe^2+ -induced lipid peroxidation was accomplished by adding 5 μl of 8 mM ferrous diammonium disulfate Fe(NH4)2 (SO4)2 ! solution. After passing of the incubation time, the reaction was stopped by adding 1 ml of a stopping solution containing 0.8M hydrogen chloride in trichloroacetic acid solution of 12.5%; then the samples were centrifuged at 2000×g in a Janetzki apparatus at 4° C. for 10 minutes.
# To 0.5 ml portion of the supernatant, 1 ml of 1% thiobarbituric acid solution was added, then the samples were placed in a water bath of 100° C. for 20 minutes. The color intensity developed was determined at 535 nm with the aid of a Hitachi 150-20 spectrophotometer by using malondialdehyde bis(diethylacetal) as reference compound.
Compound,Inhibition of the NADPH-induced lipid peroxidation IC50 [1],IC50 [2] [µM],IC50 [1] [µM],antioxidant activity compared with tirilazad mesylate [2],inhibition of the Fe^2+-induced lipid peroxidation compared with silymarin or ellagic acid [2],inhibitory effect on the Fe^2+-induced lipid peroxidation compared with DL-α-tocopherol [2]
"Cc1c(C)c2c(c(C)c1O)CCC(C)(CCCC(C)CCCC(C)CCCC(C)C)O2 (racemic) [DL-α-Tocopherol, reference compound]",N.I.,10.5,–,–,–,–
"CC[C@@]12C=C(C(=O)N3CCN(c4cc(N5CCCC5)nc(N5CCCC5)n4)CC3)n3c4c(c5ccccc53)CCN(CCC1)[C@H]42 [Compound 1, 1-(3α,16α)-eburnamenine-14-carbonyl!-4-2,6-bis(pyrrolidino)-4-pyrimidinyl!piperazine]",–,124,24.2,reaches and even exceeds to some extent the lipid peroxidation-inhibiting effect of tirilazad mesylate,–,–
"CC[C@@]12C=C(CN3CCN(c4cc(N5CCCC5)nc(N5CCCC5)n4)CC3)n3c4c(c5ccccc53)CCN(CCC1)[C@H]42 [Compound 2, 1-{ (3α,16α)-eburnamenine-14-yl!methyl}-4-2,6-bis(pyrrolidino)-4-pyrimidinyl!piperazine trihydrobromide]",–,112,6.2,reaches and even exceeds to some extent the lipid peroxidation-inhibiting effect of tirilazad mesylate,–,–
"CCC12C=C(C(=O)N3CCN(c4cc(N5CCCC5)nc(N5CCCC5)n4)CC3)n3c4c(c5ccccc53)CCN(CCC1)C42 (stereo not drawn) [Compound 3, 1-(16α)-eburnamenine-14-carbonyl!-4-2,6-bis(pyrrolidino)-4-pyrimidinyl!piperazine]",–,11.4,2.4,–,more effectively than the hepatoprotective silymarin or the anticancerogenic ellagic acid,reaches the antioxidant activity of the therapeutically used DL-α-tocopherol
"CCC12C=C(C(=O)N3CCN(c4cc(N5CCCC5)nc(N5CCCC5)n4)CC3)n3c4c(c5ccccc53)CCN(CCC1)C42 (stereo not drawn) [Compound 4, 1-(3α)-eburnamenine-14-carbonyl!-4-2,6-bis(pyrrolidino)-4-pyrimidinyl!piperazine]",–,10.3,3.1,–,more effectively than the hepatoprotective silymarin or the anticancerogenic ellagic acid,reaches the antioxidant activity of the therapeutically used DL-α-tocopherol
"O=c1oc2c(O)c(O)cc3c(=O)oc4c(O)c(O)cc1c4c23 [Ellagic acid, 4,4',5,5',6,6'-hexahydrodiphenic acid 2,6':2',6-dilactone, reference compound]",–,51,47.2,–,–,–
"C[C@@H]1C[C@H]2[C@@H]3CCC4=CC(=O)C=C[C@]4(C)C3=CC[C@]2(C)[C@H]1C(=O)CN1CCN(c2cc(N3CCCC3)nc(N3CCCC3)n2)CC1 [Tirilazad mesylate, 16α-methyl-21-{4-2,4-bis(pyrrolidino)6-pyrimidinyl!-1-piperazinyl}-pregna-1,4,9(11)-trien-3,20-dione methanesulfonate, reference compound]",–,135,121,–,–,–
